Measured values as given in patent US8193149B2, “Use of Peptide YY, alone or in combination with glucagon-like peptide, for use in medicine” (mondoBIOTECH Laboratories AG, priority 2007, dated 2012).
No end group written: not given here.

Tests used:
HIV-1IIIB = experiment: HIV-1 antiviral assay in CEM-SS cells (MTS readout); format: cell-based
HCMV strain AD169 = experiment: HCMV plaque formation assay in MRC-5 cells; format: cell-based
[1] = tested on: hepatitis B virus (HBV) ayw strain in HepG2-2.2.15 cells; experiment: HBV experimental assay system, secreted HBV DNA by TaqMan PCR; format: cell-based; conditions: single peptide, 10 micrograms per ml; HepG2-2.2.15, six days
Experimental: HepG2-2.2.15 is a stable cell line containing the hepatitis B virus (HBV) ayw strain genome (ATCC Cat. No. CRL-11997). […] After 16-24 hours the confluent monolayer of HepG2-2.2.15 cells was washed and the medium was replaced with complete medium containing test peptides—10 micrograms per ml—in duplicate. […] Three days later the culture medium was replaced with fresh medium containing the peptides. Six days following the initial administration of the peptides, the cell culture supernatants was collected, treated with pronase and DNAse and then used in a real-time quantitative TaqMan PCR assay. The PCR-amplified HBV DNA was detected in real-time by monitoring increases in fluorescence signals that result from the exonucleolytic degradation of a quenched fluorescence probe molecule that hybridizes to the amplified HBV DNA. For each PCR amplification, a standard curve was simultaneously generated using dilutions of purified HBV DNA. Antiviral activity was calculated from the reduction in HBV DNA levels (% virus control).

[2] = tested on: Primary Human endothelial cells (HUVEC); experiment: Endothelial cell migration assay; format: cell-based; conditions: single peptide, 10 micrograms per ml, 22 hours
spleen cells = experiment: Th1/Th2 cytokine profiling assay; format: cell-based, Balb/c mice; conditions: 10 micrograms per ml; Ovalbumin restimulation, 72 hours
HUVEC = experiment: Endothelial tube formation assay; format: cell-based, human; conditions: single peptide, 10 micrograms per ml, 20 hours
Experimental: The endothelial tube formation assay is based on the ability of endothelial cells to form three-dimensional capillary-like tubular structures when cultured on a gel of basement membrane extract. […] Pre-labeled HUVEC with Calcein AM were seeded in a 96-well culture plate coated with extracellular metrix (Chemicon international Cat. ECM625) and treated with test peptides—10 micrograms per ml—in full growth medium. Positive control was vehicle only. The endothelial cells were allowed to form tubes foe 20 hours and were then examined under an inverted fluorescent microscope. Duplicate wells for each treatment were photographed and quantitatevily analyzed for an average tubule length using image analysis software ImageProPlus. Raw data were expressed as average tubule lenghs in pixels ± standard deviation. Statistic p values were computed using the Student's t-test.

Cc1cn([C@H]2C[C@H](N=[N+]=[N-])[C@@H](CO)O2)c(=O)[nH]c1=O [AZT]
antiviral activity of positive control compounds (HIV-1) (HIV-1IIIB): expected levels of antiviral activity

Nc1nc(O)c2ncn(COC(CO)CO)c2n1 [Ganciclovir, reference compound]
antiviral activity of positive control compound (HCMV) (HCMV strain AD169; HCMV AD169): expected levels of antiviral activity

CC(C)(C)NC(=O)[C@@H]1CN(Cc2cccnc2)CCN1C[C@@H](O)C[C@@H](Cc1ccccc1)C(=O)N[C@H]1c2ccccc2C[C@H]1O [indinavir]
antiviral activity of positive control compounds (HIV-1) (HIV-1IIIB): expected levels of antiviral activity

His-Asp-Glu-Phe-Glu-Arg-His-Ala-Glu-Gly-Thr-Phe-Thr-Ser-Asp-Val-Ser-Ser-Tyr-Leu-Glu-Gly-Gln-Ala-Ala-Lys-Glu-Phe-Ile-Ala-Trp-Leu-Val-Lys-Gly-Arg-Gly-OH (HDEFERHAEGTFTSDVSSYLEGQAAKEFIAWLVKGRG-OH; listed as Homo sapiens) [Peptide 2, commercially available known peptide]
inhibition of HBV replication as compared to the virus control infection [1]: 62.3%
inhibition of the migration of human endothelial cells [2]: 65%
IFNγ spleen cells; TH1 response (% of control) (spleen cells): 78.0 % of control
IL-2 spleen cells (% of control) (spleen cells): 163.4 % of control
IL-4 spleen cells; TH2 response (% of control) (spleen cells): 135.2 % of control
IL-5 spleen cells; TH2 response (% of control) (spleen cells): 121.7 % of control
TNF-a spleen cells; TH1 response (% of control) (spleen cells): 145.1 % of control
inhibition of HCMV plaque formation as compared to the virus control (HCMV strain AD169; 10 micrograms per ml, 7-10 days): did not inhibit
inhibition of the tube formation of human endothelial cells (HUVEC): 25%
